The values below come from ChEMBL document CHEMBL1201862, “PubChem BioAssay data set” (2004).

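Cultured in 96-well plates, cells were exposed to test compound for 48 hours across five concentrations. Here, GI50 denotes the concentration required for 50% inhibition of growth.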 The source made the active and inactive calls. Cut-off read from the data, not from the text of the source: active = GI50 up to about 1.1 µM and inactive = higher.

Some test systems named below: CCRF-CEM; M14; SNB-19; LXFL 529; U-251; KM12; NCI-H522; COLO 205; UACC-62; OVCAR-5; OVCAR-4; HL-60; OVCAR-3; SNB-75; T47D; BT-549; PC-3; MCF7; MOLT-4; A498.
Holding throughout (assay): NCI-60 cell line screen, 48 h

With `COc1ccc(C(O)C(c2ccc(OCc3ccccc3)cc2)c2ccc(OCc3ccccc3)cc2)cc1` (stereo not drawn), the GI50 in the test with CCRF-CEM, in the test on M14, in the test with SNB-19, in the test on LXFL 529, in the test with U-251 and in the test with KM12 was > 100 µM (inactive) in each case. Besides, the GI50 in the test with NCI-H522, in the test with COLO 205, with UACC-62, in the test with OVCAR-5, with OVCAR-4 and with HL-60 was > 100 µM (inactive) throughout. For the same compound, the GI50 in the test on OVCAR-3 and with SNB-75 was > 100 µM (inactive) in each case.

In the case of `C1=Cc2nccc3cc4c(c(c23)N1)OCO4`, the GI50 with CCRF-CEM was 7.69 µM (inactive); with T47D, 6.4 µM (inactive); in the test on M14, 18.4 µM (inactive); in the test on SNB-19, 7.08 µM (inactive); in the test on BT-549, 20.3 µM (inactive); in the test on U-251, 13.5 µM (inactive). Also, the GI50 is 6.73 µM (inactive) in the test on KM12; 2.42 µM (inactive) in the test with NCI-H522; 11.6 µM (inactive) in the test with PC-3; 3.55 µM (inactive) with COLO 205; 2.32 µM (inactive) with MCF7; 14.1 µM (inactive) in the test with UACC-62. Besides, the GI50 is 10.4 µM (inactive) in the test on OVCAR-5; 7.45 µM (inactive) in the test with OVCAR-4; > 100 µM (inactive) with HL-60; 1.39 µM (inactive) in the test with MOLT-4; 21.6 µM (inactive) in the test with A498; 10.9 µM (inactive) with OVCAR-3. Besides, the GI50 in the test on SNB-75 was 6.93 µM (inactive).

With `O=S1(=O)c2ccccc2NC(=S)N1c1ccccc1`, the GI50 in the test on CCRF-CEM was 54.1 µM (inactive); in the test with T47D, 69.5 µM (inactive); with M14, 29.5 µM (inactive); with SNB-19, 7.1 µM (inactive); in the test with BT-549 it was 47.6 µM (inactive); in the test on U-251, > 72.3 µM (inactive). The GI50 in the test on KM12 is > 77.1 µM (inactive); with NCI-H522 it was 21.3 µM (inactive); in the test with PC-3, 58.3 µM (inactive); with COLO 205 it was 77.8 µM (inactive); in the test with MCF7 it was 63.2 µM (inactive); in the test on UACC-62 it was 65.9 µM (inactive). Moreover, the GI50 is 92.9 µM (inactive) in the test on OVCAR-5; 53.3 µM (inactive) in the test on OVCAR-4; 32 µM (inactive) in the test on HL-60; 29.5 µM (inactive) in the test with MOLT-4; > 58.9 µM (inactive) with A498; 41.4 µM (inactive) in the test on OVCAR-3. In addition, in the test on SNB-75, the GI50 is 2.61 µM (inactive).

As to `CCC(C)CN1C(=O)NC(C)(Cc2ccccc2)C1=O` (stereo not drawn), the GI50 in the test with M14, in the test on SNB-19, in the test with LXFL 529, in the test with U-251, with KM12 and in the test with NCI-H522 was > 100 µM (inactive) in each case. The GI50 in the test on COLO 205, in the test with OVCAR-5, in the test on HL-60 and in the test with SNB-75 was > 100 µM (inactive) throughout.

With `O=C(CCCC(=O)Nc1ccc(Cl)cc1Cl)CC(=O)c1ccc2ccccc2c1`, the GI50 in the test on CCRF-CEM, in the test with M14, with SNB-19, in the test on LXFL 529, in the test on U-251 and in the test with KM12 was > 100 µM (inactive) in each case. Also, the GI50 with COLO 205, with UACC-62, with OVCAR-5, in the test on OVCAR-4, in the test with HL-60 and in the test on MOLT-4 was > 100 µM (inactive) in each case. For the same compound, the GI50 in the test with OVCAR-3 is > 100 µM (inactive).

On to `O=C(CCCCCCCCCCc1ccccc1)C1=C(O)CCCC1=O`, for which the GI50 is 16.8 µM (inactive) in the test on CCRF-CEM; 41.2 µM (inactive) with M14; 46.2 µM (inactive) in the test on SNB-19; 32.2 µM (inactive) in the test with LXFL 529; 29.2 µM (inactive) with U-251; 30.9 µM (inactive) with KM12. The GI50 in the test with NCI-H522 is 27 µM (inactive); with COLO 205 it was 17.6 µM (inactive); with UACC-62, 25.5 µM (inactive); with OVCAR-5, 33.3 µM (inactive); in the test with OVCAR-4, 32.7 µM (inactive); in the test with HL-60, 14.3 µM (inactive). Besides, the GI50 in the test with MOLT-4 is 30.3 µM (inactive); with OVCAR-3 it was 32.8 µM (inactive); in the test with SNB-75, 32.6 µM (inactive).

`CC(C)(C)N(Cc1ccccc1)C(=O)/C=C\[S+]([O-])c1ccccc1` (stereo not drawn): the GI50 in the test on CCRF-CEM is 1.35 µM (inactive); in the test on T47D, 4.2 µM (inactive); in the test with M14, 2.51 µM (inactive); in the test with SNB-19 it was 9.77 µM (inactive); with BT-549 it was 2.94 µM (inactive); in the test on U-251, 3.88 µM (inactive). Moreover, the GI50 with KM12 is 5.69 µM (inactive); with NCI-H522, 1.19 µM (inactive); in the test with PC-3, 3.56 µM (inactive); in the test with COLO 205, 4.72 µM (inactive); in the test on MCF7 it was 2.92 µM (inactive); with UACC-62, 4.39 µM (inactive). Moreover, the GI50 in the test on OVCAR-5 was 13.6 µM (inactive); in the test with OVCAR-4, 2.32 µM (inactive); in the test with HL-60 it was 2.1 µM (inactive); with MOLT-4 it was 2.03 µM (inactive); in the test with A498 it was 13.4 µM (inactive); with OVCAR-3, 2.48 µM (inactive). In addition, the GI50 in the test with SNB-75 was 10.9 µM (inactive).

As for `Cc1cccc(C(C)(C)C)c1NC(=O)CC1C(=O)Nc2ccccc2[S+]1[O-]` (stereo not drawn), the GI50 with M14 was 43.6 µM (inactive); in the test with SNB-19, 57.1 µM (inactive); with LXFL 529, 37.8 µM (inactive); with U-251 it was 58.9 µM (inactive); in the test with KM12 it was 73.6 µM (inactive); in the test with NCI-H522, 39.4 µM (inactive). Also, the GI50 was 21.1 µM (inactive) with COLO 205; > 100 µM (inactive) in the test on OVCAR-5; 18.5 µM (inactive) in the test with OVCAR-4; 20.9 µM (inactive) with HL-60; 20.3 µM (inactive) in the test with MOLT-4; 49.7 µM (inactive) in the test with OVCAR-3. In addition, in the test on SNB-75, the GI50 is 54.2 µM (inactive).

For `CC(=O)O[C@@H]1C[C@@]2(C)[C@@H]3CC=C4[C@@H](C[C@H](O)C(=O)C4(C)C)[C@]3(C)C(=O)C[C@]2(C)[C@H]1[C@@](C)(O)C(=O)/C=C/C(C)(C)OC(C)=O`, the GI50 was 1.61 µM (inactive) in the test on CCRF-CEM; 10.1 µM (inactive) with T47D; 0.592 µM (active) in the test with M14; 3.21 µM (inactive) in the test on SNB-19; 0.336 µM (active) with BT-549; 0.617 µM (active) with U-251. Moreover, the GI50 is 4.84 µM (inactive) with KM12; 0.541 µM (active) in the test with NCI-H522; 1.59 µM (inactive) in the test with PC-3; 1.5 µM (inactive) in the test with COLO 205; 3.57 µM (inactive) in the test on MCF7; 2.63 µM (inactive) with UACC-62. The GI50 in the test on OVCAR-5 is 12.8 µM (inactive); in the test on OVCAR-4 it was 0.789 µM (active); with HL-60, 0.746 µM (active); in the test with MOLT-4, 3.33 µM (inactive); in the test on A498, 0.0151 µM (active); with OVCAR-3, 4.81 µM (inactive). The GI50 in the test with SNB-75 was 1.85 µM (inactive).

With `CCCC(=O)OC[n+]1ccc(-c2c(COC(=O)NC(C)C)c(COC(=O)NC(C)C)c3n2CCC3)cc1`, the GI50 in the test with CCRF-CEM was 44.6 µM (inactive); in the test with T47D, > 100 µM (inactive); in the test with M14, > 100 µM (inactive); in the test with SNB-19 it was > 100 µM (inactive); in the test with BT-549, > 100 µM (inactive); in the test with U-251, > 100 µM (inactive). In addition, the GI50 is > 100 µM (inactive) in the test on KM12; > 100 µM (inactive) in the test with NCI-H522; 92.7 µM (inactive) in the test on PC-3; > 100 µM (inactive) in the test on COLO 205; 80.7 µM (inactive) in the test with MCF7; 47 µM (inactive) in the test on UACC-62. Besides, the GI50 was > 100 µM (inactive) in the test with OVCAR-5; > 100 µM (inactive) in the test with OVCAR-4; 33.3 µM (inactive) with HL-60; 41.5 µM (inactive) in the test with MOLT-4; 39.7 µM (inactive) with A498; > 100 µM (inactive) in the test on OVCAR-3. Further, the GI50 with SNB-75 was 87.3 µM (inactive).

On to `[N-]=[N+]=Nc1ccccc1-[n+]1noc([O-])c1Br`, for which the GI50 with CCRF-CEM, in the test on M14, in the test with SNB-19, in the test with LXFL 529, in the test with U-251 and in the test with KM12 was > 100 µM (inactive) in each case. Further, the GI50 in the test on NCI-H522, in the test with COLO 205, in the test with UACC-62, in the test on OVCAR-4, in the test on HL-60 and in the test on MOLT-4 was > 100 µM (inactive) each time. Further, the GI50 with OVCAR-3 and in the test with SNB-75 was > 100 µM (inactive) in each case.

On to `O=C1Nc2ccc(Br)cc2/C1=C/C(=O)c1ccccc1`, for which the GI50 with CCRF-CEM is 1.9 µM (inactive); with T47D it was 14.7 µM (inactive); in the test with M14 it was 11.1 µM (inactive); in the test with SNB-19 it was 19.4 µM (inactive); in the test on BT-549, 8.59 µM (inactive); in the test on U-251, 17.9 µM (inactive). In addition, the GI50 in the test with KM12 is 7.83 µM (inactive); with NCI-H522, 2.22 µM (inactive); with PC-3, 9.38 µM (inactive); in the test on COLO 205, 2.11 µM (inactive); with MCF7, 4.18 µM (inactive); in the test on UACC-62 it was 16 µM (inactive). Further, the GI50 was 22.5 µM (inactive) in the test on OVCAR-5; 13.7 µM (inactive) in the test on OVCAR-4; 2.83 µM (inactive) in the test with HL-60; 2.64 µM (inactive) in the test on MOLT-4; 18.6 µM (inactive) in the test with A498; 6.82 µM (inactive) in the test on OVCAR-3. Also, the GI50 in the test on SNB-75 is 17.3 µM (inactive).
